# Data reported in US8420675B2, “Aminotetrahydroindazoloacetic acids” (Hoffmann-La Roche Inc., priority 2008, dated 2013).
# Molecular target: T1, human CRTH2 (Homo sapiens, UniProt Q9Y5Y4)
# T1 construct: expressed in transfected cells
# T1 sequence (Q9Y5Y4 1-395): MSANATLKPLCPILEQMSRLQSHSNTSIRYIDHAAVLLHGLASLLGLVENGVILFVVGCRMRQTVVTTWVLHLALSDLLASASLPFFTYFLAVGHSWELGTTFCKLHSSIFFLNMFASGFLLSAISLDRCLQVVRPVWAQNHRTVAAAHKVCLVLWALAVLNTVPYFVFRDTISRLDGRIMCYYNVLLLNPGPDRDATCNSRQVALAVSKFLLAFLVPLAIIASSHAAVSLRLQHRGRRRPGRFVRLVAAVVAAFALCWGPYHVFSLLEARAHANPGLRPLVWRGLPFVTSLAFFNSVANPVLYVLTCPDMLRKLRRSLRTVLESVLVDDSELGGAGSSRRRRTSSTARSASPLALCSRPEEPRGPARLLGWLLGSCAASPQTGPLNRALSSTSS
# Test: Human CRTH2 Receptor Binding Assay (whole cell, [3H]ramatroban competition)
# Conditions: CHO-K1 cells expressing human CRTH2 and G-alpha16; 20 nM [3H]ramatroban; 1 hour, room temperature
# Excerpt: A whole cell receptor binding assay using [^3H]ramatroban as the competing radioactive ligand was employed to evaluate the compound binding activity to human CRTH2. The radioactive ligand [^3H]ramatroban was synthesized according to Sugimoto et. al. (Eur. J. Pharmacol. 524, 30-37, 2005) to a specific activity of 42 Ci/mmol.
# A cell line stably expressing human CRTH2 was established by transfecting CHO-K1 cells with two mammalian expression vectors that harbored human CRTH2 and G-alpha16 cDNAs, respectively, using FuGene® 6 transfection reagent (from Roche). Stable clones expressing CRTH2 were selected by staining each clone with BM16 (BD Pharmingen™ from BD Biosciences, a division of Becton, Dickinson and Company), which is a rat monoclonal antibody to human CRTH2. The cells were maintained as monolayer cultures in Ham's F-12 medium containing 10% fetal bovine serum, 100 units/mL penicillin, 100 μg/mL streptomycin, 2 mM glutamine, 0.5 mg/mL G418 (geneticin) for CRTH2, and 0.2 mg/mL hygromycin-B (for G-alpha 16). For whole cell receptor binding assay, the monolayer cells were rinsed once with PBS (phosphate buffered saline), dissociated using ethylenediaminetetraacetate (Versene™ EDTA Lonza Inc.), and suspended in PBS containing 10 mM MgCl2 and 0.06% BSA (bovine serum albumin) at 1.5×10^6 cells/mL.
# The binding reactions (0.2 mL) were performed in 96-well plates at room temperature in PBS containing 1.5×10^5 cells, 10 mM MgCl2, 0.06% BSA, 20 nM [^3H]ramatroban, and test compound at various concentrations. After 1 hour of binding reactions, the cells were harvested on GF™/B filter microplates (microtiter plates with embedded glass fiber from PerkinElmer, Inc.) and washed 5 times with PBS using a Filtermate™ Harvester (a cell harvester that harvests and washes cells from microplates from PerkinElmer, Inc.). The radioactivities bound to the cells were determined using a microplate scintillation counter (TopCount® NXT, from PerkinElmer, Inc.) after adding 50 μL of Microscint™ 20 scintillation fluid (from PerkinElmer, Inc.) to each well of the filter plates. The radioactivity from non-specific binding was determined by replacing compound with 10 μM of 15(R)-15-methyl PGD2 (from Cayman Chemical Company) in the reaction mixtures. The radioactivity bound to the cells in the absence of compound (total binding) was determined by replacing compound with 0.25% of DMSO (dimethyl sulfoxide) in the reaction mixture. Specific binding data were obtained by subtracting the radioactivity of non-specific binding from each binding data.
# The IC50 value is defined as the concentration of the tested compound that is required for 50% inhibition of total specific binding. In order to calculate the IC50 value, the percent inhibition data were determined for 7 concentrations for each compound. The percent inhibition for a compound at each concentration was calculated according to the following formula, [1-(specific binding in the presence of compound)/(total specific binding)]x100. The IC50 value was then obtained by fitting the percent inhibition data to a sigmoidal dose-response (4 parameter logistic) model in the XLfit® software Excel add-in program [from ID Business Solutions Ltd., model 205, where F(x)=(A+(B−A)/(1+((C/x)^D)))].
row,SMILES,IC50 [nM]
1,"CN([C@@H]1CCCc2c1cnn2CC(=O)O)S(=O)(=O)c1ccc(Oc2ccc(Cl)cc2)c(C(F)(F)F)c1 [Example 9-5a, ((R)-4-{[4-(4-Chloro-phenoxy)-3-trifluoromethyl-benzenesulfonyl]-methyl-amino}-4,5,6,7-tetrahydro-indazol-1-yl)-acetic acid]",8.2
2,"CN([C@@H]1CCCc2c1cnn2CC(=O)O)S(=O)(=O)c1ccc(Oc2ccc(C(C)(C)C)cc2)c(Cl)c1 [Example 9-7a, ((R)-4-{[4-(4-tert-Butyl-phenoxy)-3-chloro-benzenesulfonyl]-methyl-amino}-4,5,6,7-tetrahydro-indazol-1-yl)-acetic acid]",12.6
3,"CN([C@@H]1CCCc2c1cnn2CC(=O)O)S(=O)(=O)c1ccc(Oc2ccc(Cl)cc2Cl)cc1Cl [Example 9-8a, ((R)-4-{[2-Chloro-4-(2,4-dichloro-phenoxy)-benzenesulfonyl]-methyl-amino}-4,5,6,7-tetrahydro-indazol-1-yl)-acetic acid]",91.4
4,"CN([C@@H]1CCCc2c1cnn2CC(=O)O)S(=O)(=O)c1ccc(Oc2ccc(F)cc2Cl)cc1Cl [Example 9-9a, ((R)-4-{[2-Chloro-4-(2-chloro-4-fluoro-phenoxy)-benzenesulfonyl]-methyl-amino}-4,5,6,7-tetrahydro-indazol-1-yl)-acetic acid]",70
5,"CN([C@@H]1CCCc2c1cnn2CC(=O)O)S(=O)(=O)c1ccc(Oc2ccccc2Cl)cc1Cl [Example 9-10a, ((R)-4-{[2-Chloro-4-(2-chloro-phenoxy)-benzenesulfonyl]-methyl-amino}-4,5,6,7-tetrahydro-indazol-1-yl)-acetic acid]",97.2
6,"CN([C@@H]1CCCc2c1cnn2CC(=O)O)S(=O)(=O)c1ccc(Oc2ccc(Cl)cc2)c(F)c1 [Example 9-12a, ((R)-4-{[4-(4-Chloro-phenoxy)-3-fluoro-benzenesulfonyl]-methyl-amino}-4,5,6,7-tetrahydro-indazol-1-yl)-acetic acid]",7.4
7,"CN([C@@H]1CCCc2c1cnn2CC(=O)O)S(=O)(=O)c1ccc(Oc2ccccc2)c(Cl)c1 [Example 9-13a, {(R)-4-[(3-Chloro-4-phenoxy-benzenesulfonyl)-methyl-amino]-4,5,6,7-tetrahydro-indazol-1-yl}-acetic acid]",9.5
8,"CN([C@@H]1CCCc2c1cnn2CC(=O)O)S(=O)(=O)c1ccc(Oc2ccc(F)cc2)c(Cl)c1 [Example 9-14a, ((R)-4-{[3-Chloro-4-(4-fluoro-phenoxy)-benzenesulfonyl]-methyl-amino}-4,5,6,7-tetrahydro-indazol-1-yl)-acetic acid]",4.4
9,"Cc1ccc(Oc2ccc(S(=O)(=O)N(C)[C@@H]3CCCc4c3cnn4CC(=O)O)cc2Cl)cc1 [Example 9-15a, {(R)-4-[(3-Chloro-4-p-tolyloxy-benzenesulfonyl)-methyl-amino]-4,5,6,7-tetrahydro-indazol-1-yl}-acetic acid]",10.3
10,"Cc1ccc(Cl)c(Oc2ccc(S(=O)(=O)N(C)[C@@H]3CCCc4c3cnn4CC(=O)O)cc2Cl)c1 [Example 9-18a, ((R)-4-{[3-Chloro-4-(2-chloro-5-methyl-phenoxy)-benzenesulfonyl]-methyl-amino}-4,5,6,7-tetrahydro-indazol-1-yl)-acetic acid]",13.4
11,"Cc1ccc(Oc2ccc(S(=O)(=O)N(C)[C@@H]3CCCc4c3cnn4CC(=O)O)cc2Cl)c(C)c1 [Example 9-19a, ((R)-4-{[3-Chloro-4-(2,4-dimethyl-phenoxy)-benzenesulfonyl]-methyl-amino}-4,5,6,7-tetrahydro-indazol-1-yl)-acetic acid]",11.4
12,"COc1cc(Cl)ccc1Oc1ccc(S(=O)(=O)N(C)[C@@H]2CCCc3c2cnn3CC(=O)O)cc1Cl [Example 9-20a, ((R)-4-{[3-Chloro-4-(4-chloro-2-methoxy-phenoxy)-benzenesulfonyl]-methyl-amino}-4,5,6,7-tetrahydro-indazol-1-yl)-acetic acid]",10.2
13,"CN([C@@H]1CCCc2c1cnn2CC(=O)O)S(=O)(=O)c1ccc(Oc2ccc(Br)cc2)c(Cl)c1 [Example 9-23a, ((R)-4-{[4-(4-Bromo-phenoxy)-3-chloro-benzenesulfonyl]-methyl-amino}-4,5,6,7-tetrahydro-indazol-1-yl)-acetic acid]",6.7
14,"CN([C@@H]1CCCc2c1cnn2CC(=O)O)S(=O)(=O)c1ccc(Oc2ccc(S(C)(=O)=O)cc2)c(Cl)c1 [Example 9-25a, ((R)-4-{[3-Chloro-4-(4-methanesulfonyl-phenoxy)-benzenesulfonyl]-methyl-amino}-4,5,6,7-tetrahydro-indazol-1-yl)-acetic acid]",20.9
15,"Cc1ccccc1Oc1ccc(S(=O)(=O)N(C)[C@@H]2CCCc3c2cnn3CC(=O)O)cc1Cl [Example 9-26a, {(R)-4-[(3-Chloro-4-o-tolyloxy-benzenesulfonyl)-methyl-amino]-4,5,6,7-tetrahydro-indazol-1-yl}-acetic acid]",23.7

# Further lines, results first:
row,IC50 [nM],SMILES
1,21.7,"CN([C@@H]1CCCc2c1cnn2CC(=O)O)S(=O)(=O)c1ccc(Oc2ccc(Cl)cc2Cl)c(Cl)c1 [Example 9-6a, ((R)-4-{[3-Chloro-4-(2,4-dichloro-phenoxy)-benzenesulfonyl]-methyl-amino}-4,5,6,7-tetrahydro-indazol-1-yl)-acetic acid]"
2,7.2,"CN([C@@H]1CCCc2c1cnn2CC(=O)O)S(=O)(=O)c1ccc(Oc2ccc(Cl)cc2F)c(Cl)c1 [Example 9-11a, ((R)-4-{[3-Chloro-4-(4-chloro-2-fluoro-phenoxy)-benzenesulfonyl]-methyl-amino}-4,5,6,7-tetrahydro-indazol-1-yl)-acetic acid]"
3,8,"CN([C@@H]1CCCc2c1cnn2CC(=O)O)S(=O)(=O)c1ccc(Oc2ccc(F)cc2Cl)c(Cl)c1 [Example 9-16a, ((R)-4-{[3-Chloro-4-(2-chloro-4-fluoro-phenoxy)-benzenesulfonyl]-methyl-amino}-4,5,6,7-tetrahydro-indazol-1-yl)-acetic acid]"
4,12.9,"COc1cc(F)ccc1Oc1ccc(S(=O)(=O)N(C)[C@@H]2CCCc3c2cnn3CC(=O)O)cc1Cl [Example 9-17a, ((R)-4-{[3-Chloro-4-(4-fluoro-2-methoxy-phenoxy)-benzenesulfonyl]-methyl-amino}-4,5,6,7-tetrahydro-indazol-1-yl)-acetic acid]"
5,13.2,"CN([C@@H]1CCCc2c1cnn2CC(=O)O)S(=O)(=O)c1ccc(Oc2ccc(Cl)c(F)c2)c(Cl)c1 [Example 9-21a, ((R)-4-{[3-Chloro-4-(4-chloro-3-fluoro-phenoxy)-benzenesulfonyl]-methyl-amino}-4,5,6,7-tetrahydro-indazol-1-yl)-acetic acid]"
6,24.2,"CN([C@@H]1CCCc2c1cnn2CC(=O)O)S(=O)(=O)c1ccc(Oc2cc(F)ccc2F)c(Cl)c1 [Example 9-22a, ((R)-4-{[3-Chloro-4-(2,5-difluoro-phenoxy)-benzenesulfonyl]-methyl-amino}-4,5,6,7-tetrahydro-indazol-1-yl)-acetic acid]"
7,16.5,"CN([C@@H]1CCCc2c1cnn2CC(=O)O)S(=O)(=O)c1ccc(Oc2ccc(F)c(Cl)c2)c(Cl)c1 [Example 9-24a, ((R)-4-{[3-Chloro-4-(3-chloro-4-fluoro-phenoxy)-benzenesulfonyl]-methyl-amino}-4,5,6,7-tetrahydro-indazol-1-yl)-acetic acid]"
